Results reported in patent US5250562A, “Stilbene derivatives” (Hoffmann-La Roche Inc., priority 1988, dated 1993).

Test system: chemically induced mammary tumours
Assay: activity against chemically induced (oral administration of dimethylbenzanthracene) mammary tumours in rats
Format: in vivo
Details: for Increase or decrease in the average number of tumours per rat: control group +242; for Increase or decrease in the average tumour volume per rat in mm^3: control group +714
Description: The biological activity of the compounds in accordance with the invention can be determined e.g. using the test procedures described in German Offenlegungsschrift 3 715 955.

C/C(=C\c1ccc(OCCN2CCOCC2)cc1)c1ccc2c(c1)C(C)(C)CCC2(C)C [4-[2-[p-[(E)-2-(5,6,7,8-tetrahydro-5,5,8,8-tetramethyl-2-naphthyl)propenyl]phenoxy]ethyl]morpholine]
Rats with tumours (50 mg/kg/day p.o.): 100 % of controls | Increase or decrease in the average number of tumours per rat (50 mg/kg/day p.o.): +91 | Increase or decrease in the average tumour volume per rat in mm^3 (50 mg/kg/day p.o.): +550 mm^3 | Rats with tumours (100 mg/kg/day p.o.): 50 % of controls | Increase or decrease in the average number of tumours per rat (100 mg/kg/day p.o.): -73 | Increase or decrease in the average tumour volume per rat in mm^3 (100 mg/kg/day p.o.): -77 mm^3 | Rats with tumours (200 mg/kg/day p.o.): 10 % of controls | Increase or decrease in the average number of tumours per rat (200 mg/kg/day p.o.): -96 | Increase or decrease in the average tumour volume per rat in mm^3 (200 mg/kg/day p.o.): -99 mm^3
